Results published in patent US20250171423A1, “PHARMACEUTICAL COMPOUNDS FOR THE TREATMENT OF COMPLEMENT MEDIATED DISORDERS” (Achillion Pharmaceuticals, Inc., priority 2020, published 2025).

Target: T1, Human complement C1s enzyme (Homo sapiens, UniProt P09871)
T1 construct: purified from human serum, Complement Technology, Inc; purchased Complement Technology, Inc; host or cells: human serum
T1 sequence (P09871 438-688 limits assumed): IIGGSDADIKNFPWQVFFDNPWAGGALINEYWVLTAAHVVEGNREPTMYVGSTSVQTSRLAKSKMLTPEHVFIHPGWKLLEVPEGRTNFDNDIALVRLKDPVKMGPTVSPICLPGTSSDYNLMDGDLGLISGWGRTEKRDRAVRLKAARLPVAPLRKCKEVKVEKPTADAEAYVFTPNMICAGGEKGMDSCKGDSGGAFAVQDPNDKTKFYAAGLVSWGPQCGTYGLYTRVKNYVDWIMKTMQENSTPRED
T1 sequence (P09871 16-437 partner limits assumed): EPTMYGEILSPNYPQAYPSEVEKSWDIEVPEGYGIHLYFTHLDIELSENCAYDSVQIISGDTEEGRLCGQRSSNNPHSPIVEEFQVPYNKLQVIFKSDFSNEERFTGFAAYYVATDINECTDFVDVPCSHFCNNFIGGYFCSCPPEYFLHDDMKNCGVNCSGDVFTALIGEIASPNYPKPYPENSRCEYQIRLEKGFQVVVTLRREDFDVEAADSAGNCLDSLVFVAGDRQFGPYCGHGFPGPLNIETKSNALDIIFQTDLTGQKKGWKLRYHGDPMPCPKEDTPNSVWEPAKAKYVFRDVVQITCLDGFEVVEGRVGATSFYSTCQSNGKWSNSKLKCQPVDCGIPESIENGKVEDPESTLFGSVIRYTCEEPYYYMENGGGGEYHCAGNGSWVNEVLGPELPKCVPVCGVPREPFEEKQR
Test: Human C1s Enzyme Assay
Type: biochemical
Conditions: human C1s 1.16 nM, 5 min preincubation, substrate Z-L-Lys-SBzl 100 μM, A405; read-out: C1s Protease Activity
Procedure: The assay of Example 3 was used to determine the IC50's of the compounds. Other standard complement assays are also available.
Example 3. Human C1s Enzyme Assay
Human complement C1s enzyme (purified from human serum, Complement Technology, Inc.) at 1.16 nM final concentration was incubated with test compound at various concentrations for 5 min at room temperature in 50 mM Tris, 1 M NaCl, pH 7.5. A synthetic substrate Z-L-Lys-SBzl and DTNB (Ellman's reagent) were added to final concentrations of 100 μM each. Absorbance at 405 nm (A405) was recorded at 30 second intervals for 30 min using a microplate spectrophotometer. IC50 values were calculated by nonlinear regression of complement C1s reaction rates as a function of test compound concentration.

`C[C@@]12C[C@@H]1N(C(=O)CNC(=O)c1ccc(Oc3ccccc3)cc1)[C@H](C(=O)NCCc1cc(C(=N)N)cs1)C2` [Compound 52, (1S,3S,5S)-N-(2-(4-carbamimidoylthiophen-2-yl)ethyl)-5-methyl-2-((4-phenoxy-benzoyl)glycyl)-2-azabicyclo[3.1.0]hexane-3-carboxamide] and `COC[C@@]12C[C@@H]1N(C(=O)CNC(=O)c1ccc(Oc3ccccc3)cc1)[C@H](C(=O)NCc1cc(C(=N)N)cs1)C2` [Compound 20, (1S,3S,5R)-N-((4-carbamimidoylthiophen-2-yl)methyl)-5-(methoxymethyl)-2-((4-phenoxybenzoyl)glycyl)-2-azabicyclo[3.1.0]hexane-3-carboxamide] cannot be ordered by IC50: less than 100 nM for the first, less than 100 nM for the second.

`C[C@H](Oc1ccc(C(=O)NCC(=O)N2[C@H]3C[C@@]3(C)C[C@H]2C(=O)NCc2cc(C(=N)N)cs2)cc1)c1ccccc1` [Compound 212, (1S,3S,5S)-N-((4-carbamimidoylthiophen-2-yl)methyl)-5-methyl-2-((4-((S)-1-phenylethoxy)benzoyl)glycyl)-2-azabicyclo[3.1.0]hexane-3-carboxamide] and `C[C@@]12C[C@@H]1N(C(=O)CNC(=O)c1cccc(Oc3ccccc3)c1)[C@H](C(=O)NCc1cc(C(=N)N)cs1)C2` [Compound 137, (1S,3S,5S)-N-((4-carbamimidoylthiophen-2-yl)methyl)-5-methyl-2-((3-phenoxbenzoyl)glycyl)-2-azabicyclo[3.1.0]hexane-3-carboxamide] cannot be ordered by IC50: less than 100 nM for the first, less than 100 nM for the second.

`CS(=O)(=O)[C@@H]1C[C@@H](C(=O)NCc2cc(C(=N)N)cs2)N(C(=O)CNC(=O)CCCOc2ccccc2)C1` [Compound 98, (2S,4R)-N-((4-carbamimidoylthiophen-2-yl)methyl)-4-(methylsulfonyl)-1-((4-phenoxybutanoyl)glycyl)pyrrolidine-2-carboxamide] and `N=C(N)c1csc(CNC(=O)[C@@H]2CC(=C(F)F)CN2C(=O)CNC(=O)CCCOc2ccccc2)c1` [Compound 26, (S)-N-((4-carbamimidoylthiophen-2-yl)methyl)-4-(difluoromethylene)-1-((4-phenoxy-butanoyl)glycyl)pyrrolidine-2-carboxamide] cannot be ordered by IC50: less than 100 nM for the first, less than 100 nM for the second.

`[N-]=[N+]=NC[C@@]1(F)C[C@@H](C(=O)NCc2cc(C(=N)N)cs2)N(C(=O)CNC(=O)CCCOc2ccccc2)C1` [Compound 85, (2S,4R)-4-(azidomethyl)-N-((4-carbamimidoylthiophen-2-yl)methyl)-4-fluoro-1-((4-phenoxybutanoyl)glycyl)pyrrolidine-2-carboxamide] and `N=C(N)c1csc(CNC(=O)[C@@H]2CC3(CN2C(=O)CNC(=O)CCCOc2ccnc(F)c2)OCCO3)c1` [Compound 206, (S)-N-((4-carbamimidoylthiophen-2-yl)methyl)-7-((4-((2-fluoropyridin-4-yl)oxy)butanoyl)glycyl)-1,4-dioxa-7-azaspiro[4.4]nonane-8-carboxamide] cannot be ordered by IC50: less than 100 nM for the first, less than 100 nM for the second.

`C[C@@]12C[C@@H]1N(C(=O)CNC(=O)c1ccc(Oc3ccccc3)cc1)[C@H](C(=O)NCc1ccc3onc(N)c3c1)C2` [Compound 67, (1S,3S,5S)-N-((3-aminobenzo[d]isoxazol-5-yl)methyl)-5-methyl-2-((4-phenoxy-benzoyl)glycyl)-2-azabicyclo[3.1.0]hexane-3-carboxamide] and `COc1cccc(CNC(=O)[C@@H]2C[C@]3(C)C[C@@H]3N2C(=O)CNC(=O)c2ccc(Oc3ccccc3)cc2)c1` [Compound 42, (1S,3S,5S)-N-(3-methoxybenzyl)-5-methyl-2-((4-phenoxybenzoyl)-glycyl)-2-azabicyclo[3.1.0]hexane-3-carboxamide] cannot be ordered by IC50: greater than 1000 nM for the first, greater than 1000 nM for the second.

First: CO[C@@H]1C[C@@H](C(=O)N[C@H](C)c2cc(C(=N)N)cs2)N(C(=O)CNC(=O)c2ccc(Oc3ccccc3)cc2)C1 [Compound 185, (2S,4R)-N-((R)-1-(4-carbamimidoylthiophen-2-yl)ethyl)-4-methoxy-1-((4-phenoxybenzoyl)glycyl)pyrrolidine-2-carboxamide]
Second: COC[C@@H](NC(=O)[C@@H]1C[C@@H](OC(F)F)CN1C(=O)CNC(=O)c1ccc(Oc2ccccc2)cc1)c1cc(C(=N)N)cs1 [Compound 213, (2S,4R)-N-((R)-1-(4-carbamimidoylthiophen-2-yl)-2-methoxyethyl)-4-(difluoromethoxy)-1-((4-phenoxybenzoyl)glycyl)pyrrolidine-2-carboxamide]
The IC50 of the first is lower: less than 100 nM for the first, greater than 1000 nM for the second. The first is the more potent here.

Compared with `CC(=O)ONC(=N)c1csc(CNC(=O)[C@@H]2C[C@]3(C)C[C@@H]3N2C(=O)CNC(=O)c2ccc(Oc3ccccc3)cc2)c1` [Compound 39, (1S,3S,5S)-N-((4-(N-acetoxycarbamimidoyl)thiophen-2-yl)methyl)-5-methyl-2-((4-phenoxybenzoyl)glycyl)-2-azabicyclo[3.1.0]hexane-3-carboxamide], `C[C@@]12C[C@@H]1N(C(=O)CNC(=O)c1ccc(Oc3ccccc3)cc1)[C@H](C(=O)NCc1cc(C3=NCCN3)cs1)C2` [Compound 37, (1S,3S,5S)-N-((4-(4,5-dihydro-1H-imidazol-2-yl)thiophen-2-yl)methyl)-5-methyl-2-((4-phenoxybenzoyl)glycyl)-2-azabicyclo[3.1.0]hexane-3-carboxamide] is higher in IC50: 100 to 1000 nM for the first, greater than 1000 nM for the second. The first is the more potent here.

`N=C(N)c1csc(CNC(=O)[C@@H]2C[C@@]3(CN2C(=O)CNC(=O)c2ccc(Oc4ccccc4)cc2)CC3(F)F)c1` [Compound 21, (3S,6S)-N-((4-carbamimidoylthiophen-2-yl)methyl)-1,1-difluoro-5-((4-phenoxy-benzoyl)glycyl)-5-azaspiro[2.4]heptane-6-carboxamide] and `N=C(N)c1csc(CNC(=O)[C@@H]2CC3(COC3)CN2C(=O)CNC(=O)c2ccc(Oc3ccccc3)cc2)c1` [Compound 262, (S)-N-((4-carbamimidoylthiophen-2-yl)methyl)-6-((4-phenoxybenzoyl)glycyl)-2-oxa-6-azaspiro[3.4]octane-7-carboxamide] cannot be ordered by IC50: less than 100 nM for the first, less than 100 nM for the second.

Going from `C[C@@]12C[C@@H]1N(C(=O)CN1Cc3ccc(Oc4ccccc4)cc3C1=O)[C@H](C(=O)NCc1cc(C(=N)N)cs1)C2` [Compound 144, (1S,3S,5S)-N-[(4-carbamimidoylthiophen-2-yl)methyl]-5-methyl-2-[2-(1-oxo-6-phenoxy-3H-isoindol-2-yl)acetyl]-2-azabicyclo[3.1.0]hexane-3-carboxamide] to `C[C@@]12C[C@@H]1N(C(=O)CNC(=O)c1ccc(Oc3ccccc3)cc1)[C@H](C(=O)NCc1nnc(C(=N)N)o1)C2` [Compound 201, (1S,3S,5S)-N-((5-carbamimidoyl-1,3,4-oxadiazol-2-yl)methyl)-5-methyl-2-((4-phenoxybenzoyl)glycyl)-2-azabicyclo[3.1.0]hexane-3-carboxamide], the IC50 rises from less than 100 nM to greater than 1000 nM. The first is the more potent here.

`Cc1ccccc1[C@H]1C[C@@H](C(=O)N[C@H](C)c2cc(C(=N)N)cs2)N(C(=O)CNC(=O)c2ccc(Oc3ccccc3)cc2)C1` [Compound 238, (2S,4R)-N-((R)-1-(4-carbamimidoylthiophen-2-yl)ethyl)-1-((4-phenoxybenzoyl)glycyl)-4-(o-tolyl)pyrrolidine-2-carboxamide] and `N=C(N)c1csc([C@@H](CO)NC(=O)[C@@H]2C[C@@H](OC(F)F)CN2C(=O)CNC(=O)c2ccc(Oc3ccccc3)cc2)c1` [Compound 197, (2S,4R)-N-((R)-1-(4-carbamimidoylthiophen-2-yl)-2-hydroxyethyl)-4-(difluoromethoxy)-1-((4-phenoxybenzoyl)glycyl)pyrrolidine-2-carboxamide] cannot be ordered by IC50: less than 100 nM for the first, less than 100 nM for the second.

Compared with `C[C@H](O)[C@H](O)[C@@H](O)[C@@H](O)CNCC(=O)N1[C@H]2C[C@@]2(C)C[C@H]1C(=O)NCc1nc(C(=N)N)cs1` [Compound 78, (1S,3S,5S)-N-((4-carbamimidoylthiazol-2-yl)methyl)-5-methyl-2-(((2S,3S,4S,5S)-2,3,4,5-tetrahydroxyhexyl)glycyl)-2-azabicyclo[3.1.0]hexane-3-carboxamide], `C[C@@]12C[C@@H]1N(C(=O)CNC(=O)c1ccc(Oc3ccccc3)cc1)[C@H](C(=O)N1CCc3c(C(=N)N)csc3C1)C2` [Compound 112, N-(2-((1S,3S,5S)-3-(3-carbamimidoyl-4,5,6,7-tetrahydrothieno[2,3-c]pyridine-6-carbonyl)-5-methyl-2-azabicyclo[3.1.0]hexan-2-yl)-2-oxoethyl)-4-phenoxybenzamide] is lower in IC50: greater than 1000 nM for the first, 100 to 1000 nM for the second.

Compound `N=C(N)c1csc(CNC(=O)[C@@H]2CCC(=O)N2C(=O)CNC(=O)c2ccc(Oc3ccccc3)cc2)c1` [Compound 7, (S)-N-((4-carbamimidoylthiophen-2-yl)methyl)-5-oxo-1-((4-phenoxybenzoyl)glycyl)-pyrrolidine-2-carboxamide] has an IC50 of less than 100 nM.
